From patent US8822172B2, “Method of detecting isolevuglandin phospholipid adducts” (Case Western Reserve University, priority 2009, dated 2014)
Where two headings read alike, the source gives them in different places.

What was measured:
[1] = Ca2^+; cited from earlier work
[2] = Fe^3+; cited from earlier work
[3] = Cu^2+; cited from earlier work
mouse liver [4] = details: short-term model of ethanol exposure, 2, 4 or 6% for 2 days
Description: (§1) All procedures using animals were approved by the Cleveland Clinic Foundation Institutional Animal Care and Use Committees. Mice were housed in shoe-box cages (2 animals/cage) with microisolator lids. Standard microisolator handling procedures were used throughout the study. Mice were randomized into ethanol-fed and pair-fed groups and then adapted to control liquid diet for 2 days. The ethanol-fed group was allowed free access to ethanol containing diet with increasing concentrations of ethanol: 1% (vol/vol) and 2% each for 2 days, then 4% ethanol for 7 d, and finally 5% ethanol for a further 4 weeks. For the dose-response experiment, mice were allowed free access to 1% ethanol for 2 days and then 2%, 4% or 6% ethanol for a further 2 days. Control mice were pair-fed diets which iso-calorically substituted maltose dextrins for ethanol over the entire feeding period. Mice were then anesthetized, blood samples taken into non-heparinized syringes from the posterior vena cava, livers blanched with saline via the portal vein and then excised. Portions of each liver were then either fixed in formalin or frozen in optimal cutting temperature (OCT) compound (Sakura Finetek U.S.A., Inc., Torrance Calif.) for histology, frozen in RNAlater (Qiagen, Valencia, Calif.) or flash frozen in liquid nitrogen and stored at −80° C. until further analysis. […]

TNF-α = details: long-term ethanol feeding; early peak at 2% d2, later peak at 5% wk 4
Description: as §1

plasma ALT = details: short-term model, 2, 4 or 6% ethanol diet for 2 days
Description: (§2) All procedures using animals were approved by the Cleveland Clinic Foundation Institutional Animal Care and Use Committees. Mice were housed in shoe-box cages (2 animals/cage) with microisolator lids. Standard microisolator handling procedures were used throughout the study. […] Mice were then anesthetized, blood samples taken into non-heparinized syringes from the posterior vena cava, livers blanched with saline via the portal vein and then excised. Portions of each liver were then either fixed in formalin or frozen in optimal cutting temperature (OCT) compound (Sakura Finetek U.S.A., Inc., Torrance Calif.) for histology, frozen in RNAlater (Qiagen, Valencia, Calif.) or flash frozen in liquid nitrogen and stored at −80° C. until further analysis. Blood was transferred to heparin-containing tubes for the isolation of plasma. Plasma was then stored at −80° C.
Plasma samples were assayed for alanine aminotransferase (ALT) using a commercially available enzymatic assay kit (Diagnostic Chemicals, LTD, Oxford, Conn.) following the manufacturer's instructions.

CYP2E1 = details: chronic ethanol feeding, maximum at 5% wk 2
Description: All procedures using animals were approved by the Cleveland Clinic Foundation Institutional Animal Care and Use Committees. Mice were housed in shoe-box cages (2 animals/cage) with microisolator lids. Standard microisolator handling procedures were used throughout the study. […] Mice were then anesthetized, blood samples taken into non-heparinized syringes from the posterior vena cava, livers blanched with saline via the portal vein and then excised. Portions of each liver were then either fixed in formalin or frozen in optimal cutting temperature (OCT) compound (Sakura Finetek U.S.A., Inc., Torrance Calif.) for histology, frozen in RNAlater (Qiagen, Valencia, Calif.) or flash frozen in liquid nitrogen and stored at −80° C. until further analysis. […]
0.5-1.0 g of frozen liver tissue was homogenized in 10 ml/g tissue in lysis buffer (50 mM Tris-HCl, pH7.4, 1% NP-40, 0.25% Na-deoxycholate, 150 mM NaCl, 1 mM EDTA with added protease inhibitors Complete™ (Roche Diagnostics, Mannheim, Germany), 17.5 μg/ml aprotinin, 5 μg/ml bestatin, 10 μg/ml leupeptin, 1 mg/ml bacitracin, and 20 μg/ml E64) and phosphatase inhibitors (1 mM vanadate and 10 mM Na pyrophosphate)) using 15 strokes in a glass on glass homogenizer (loose pestle). […] Protein concentrations were measured. […] Bound antibody was detected by chemiluminescence. Immunoreactive protein quantity was assessed by scanning densitometry.

mouse liver [5] = details: chronic ethanol-fed vs pair-fed mice, P=0.00021
Description: The tissue was homogenized manually using a Teflon-coated stainless steel pestle. After homogenization, the resulting mixture was placed in a 4° C. freezer for 30 min to maximize the lipid extraction efficiency. An aqueous solution of sodium chloride (1.5%, w/w, 1/4 the volume of the organic extract) was added. The resulting mixture was centrifuged at 3000 rpm for 15 min. The lower layer containing the lipids was carefully withdrawn with a polyethylene transfer pipette, making sure to avoid the interface or upper layer. The solvents were then evaporated under a stream of dry argon at room temperature, and the sample was stored under argon at −80° C. before being analyzed using LC-MS/MS.
The resulting mixture was sonicated for 5 min followed by the addition of PLA2 enzyme (50 μl of 10,000 units/ml). […]
Direct infusion MS and LC-MS/MS were performed on a Quattro Ultima triple-quadrupole mass spectrometer (Micromass, Wythenshawe, UK). […] The total ion current was measured in the mass-to-charge ratio (m/z) range of 50-900 at 30 V of cone energy in the negative ion mode with a 3.5-kV electrospray capillary voltage, 60-V cone voltage, 120° C. source temperature, 250° C. desolvation temperature, 65 L/h cone gas flow, and 658 L/h desolvation gas flow. […] All retention times of analytes shown in MRM spectra were recorded relative to the internal standard (iso[4]LGE2-D31-lysoPE-HL, 11.83 min). […]

hepatic triglycerides = details: short-term model, 2, 4 or 6% ethanol diet for 2 days
Description: as §2
Formalin-fixed tissues were paraffin embedded, sectioned and stained with hematoxylin and eosin. Sections were coded prior to analysis and examined by two independent individuals. For Oil Red O staining, 10 micron sections were cut from frozen OCT samples and affixed to a microscope slide. Slides were then stored at 4° C. until staining. […] Total liver triglycerides were measured using the Triglyceride Reagent Kit from Pointe Scientific Inc. (Lincoln Park, Mich.).

mouse liver [6] = details: chronic ethanol-fed mouse liver (5% wk 4), ELISA and LC/MS
Description: Mice were housed in shoe-box cages (2 animals/cage) with microisolator lids. Standard microisolator handling procedures were used throughout the study. […] Mice were then anesthetized, blood samples taken into non-heparinized syringes from the posterior vena cava, livers blanched with saline via the portal vein and then excised. Portions of each liver were then either fixed in formalin or frozen in optimal cutting temperature (OCT) compound (Sakura Finetek U.S.A., Inc., Torrance Calif.) for histology, frozen in RNAlater (Qiagen, Valencia, Calif.) or flash frozen in liquid nitrogen and stored at −80° C. until further analysis. Blood was transferred to heparin-containing tubes for the isolation of plasma. Plasma was then stored at −80° C.
Liver homogenates were prepared as described except that 50 μM butylated hydroxytoluene (BHT) and 100 μM diethylenetriamine pentaacetic acid (DTPA) were added to the buffer to prevent aerial oxidation of lipids during homogenization. 50 μg of protein was used in the ELISA.

Structure (SMILES) | stability constant log K of EDTA complex [1] | stability constant log K of EDTA complex [2] | stability constant log K of EDTA complex [3] | 4-HNE, LGE2 and iso[4]LGE2-protein adducts in liver (mouse liver [4]) | TNF-α in mouse liver (TNF-α) | plasma ALT (plasma ALT) | hepatic CYP2E1 expression (CYP2E1) | isoLG-lysoPE-HL liver levels compared to pair-fed mice (mouse liver [5]) | hepatic triglycerides (hepatic triglycerides) | adducts of iso[4]LGE2 in liver compared to pair-fed animals (mouse liver [6]) [fold]
O=C(O)CN(CCN(CC(=O)O)CC(=O)O)CC(=O)O [EDTA, ethylenediaminetetraacetic acid] | 10.7 | 25.1 | 18.8 | – | – | – | – | – | – | –
CCO [ethanol] | – | – | – | increased only at 6% ethanol feeding | biphasic induction | increased at 4 and 6% | increased over time | Twofold higher | increased at 4 and 6% | 2
